The IC50 is the concentration that inhibits the measured activity by half.

The results in this text go back to ChEMBL document CHEMBL1158752, “Microbial transformation of 20(S)-protopanaxatriol by Mucor spinosus” (J Nat Prod, 2005).

Where only a bound is given, the exact number is not on record here.

For one test, the system named is HL-60 (human). As to the kind of experiment: Cytotoxicity against human HL60 cells after 48 hrs by MTT assay. As to conditions: HL-60, 48 h. A general note: Formazan colour is commonly taken as a measure of viable cells.
The subject of the next test is BGC-823 (human). Briefly: Cytotoxicity against human BGC823 cells after 48 hrs by MTT assay. To be noted: BGC-823, 48 h.

In the test with HL-60 (human), `CC(C)=CCC[C@](C)(O)[C@H]1CC[C@]2(C)[C@@H]1[C@H](O)C[C@@H]1[C@@]3(C)CC[C@H](O)C(C)(C)[C@@H]3[C@@H](O)C[C@]12C` returned an IC50 of 16 µM.

`C/C(=C\CC[C@](C)(O)[C@H]1CC[C@]2(C)[C@H]1[C@H](O)C[C@@H]1[C@@]3(C)CC[C@H](O)C(C)(C)[C@@H]3[C@@H](O)C[C@]12C)CO`: the IC50 with HL-60 (human) was 12.3 µM; in the test with BGC-823 (human), above 100 µM.

Regarding `C/C(=C/CC[C@](C)(O)[C@H]1CC[C@]2(C)[C@H]1C(=O)C[C@@H]1[C@@]3(C)CC[C@H](O)C(C)(C)[C@@H]3[C@@H](O)C[C@]12C)CO`, the figures for the IC50 with HL-60 (human) and in the test on BGC-823 (human) were 10.8 µM and above 100 µM, respectively.

Turning to `C/C(=C\CC[C@](C)(O)[C@H]1CC[C@]2(C)[C@H]1C(=O)C[C@@H]1[C@@]3(C)CC[C@H](O)C(C)(C)[C@@H]3[C@@H](O)C[C@]12C)CO`, the values for the IC50 in the test with HL-60 (human) and in the test on BGC-823 (human) were 16.3 µM and above 100 µM, respectively.

On to `CC(C)=CCC[C@](C)(O)[C@H]1C[C@H](O)[C@]2(C)[C@H]1C(=O)C[C@@H]1[C@@]3(C)CC[C@H](O)C(C)(C)[C@@H]3[C@@H](O)C[C@]12C`, for which the IC50 with HL-60 (human) was 15 µM; in the test with BGC-823 (human), above 100 µM.
